Values of other authors in US20050181036A1 (Research Development Foundation, priority 2003, published 2005).
Entries after “also recorded” stand apart in the source; their conditions may differ.

In the case of `COc1cc(/C=C/C(=O)CC(=O)/C=C/c2ccc(O)c(OC)c2)ccc1O` [Curcumin, diferuloylmethane], the solubility in dimethylsulfoxide (dimethylsulfoxide) is given as “soluble”, the solubility in ethanol (ethanol) is given as “soluble” and the solubility in ether (ether) is given as “insoluble”. For the same molecule, the solubility in water (water) was “insoluble; also recorded: not water-soluble”.
